“Also recorded” adds a separate entry of the source.
Columns and labels:
G795C iPSC-microglia = assay: Caspase 3/7 cell death assay (IncuCyte, 24 h imaging); type: cell-based, human; details: 250 nM, 500 nM, 1 μm, versus DMSO control
Description: (§1) FIGS. 4A, 4B, 4C, 4D, and 4E show human stem cell-derived microglia are also susceptible to and killed by CSF1R inhibition in vitro. […] Images captured on Incucyte S3 live-cell imager. […] Images captured on Incucyte S3 live-cell imager. […] Images captured on Incucyte S3 live-cell imager. […] Images captured on Incucyte S3 live-cell imager. […] For all panels, n=4 images in six independent wells were quantified. Data represented as mean values±SEM.
(§2) Strategy 1: A crystal structure of the CSF1R receptor bound to an antagonist (PMID: 31434879) to predict amino acid substitutions that may sterically hinder the binding of CSF1R antagonists while not impairing the normal binding of ATP into the same binding pocket. The crystal structure of PLX5622 bound to human CSF1R was obtained and the ATP binding pocket was examined (FIG. 7A). Through molecular modeling single amino acid changes were predicted that would likely impair the binding of PLX5622 or PLX3397 or other CSF1R antagonists while not disrupting normal ATP binding to CSF1R. […] Other mutations could also be explored to prevent binding (FIG. 7D). […] The resulting iPSCs were then differentiated into microglia and exposed to varying concentrations of either PLX3397 or PLX5622. To detect microglial cell death (apoptosis) a caspase-3/7 fluorogenic reporter was used. […] FIG. 4F provided representative images of cell density (phase-contrast microscopy, 1st column) and fluorescent Caspase-3/7 activity (2nd column) across each dose of PLX3397 and PLX5622.
(§3) Resistance to each of the CSF1R inhibitors tested was quantified using a fluorogenic caspase 3/7 detector (Essen BioScience) and time-lapse imaging over 24 hours.
(§4) Cell death assay: iPS-microglia were plated at 70K cells per 96-well plate (6 wells per line per condition). At time 0, all microglia were treated with IncuCyte Caspase-3/7 Green Apoptosis Assay Reagent 1:1000. Cells were maintained in the described medium: fresh complete medium+0.1% DMSO, complete media+250 nM PLX3397, complete medium+500 nM PLX3397, complete medium+1 μm PLX3397, complete medium+250 nM PLX5622, complete medium+500 nM PLX5622, complete medium+1 μm PLX5622, complete medium+250 nM Edicotinib, complete medium+500 nM Edicotinib, complete medium+1 μm Edicotinib, complete medium+250 nM BLZ945, complete medium+500 nM BLZ945, complete medium+1 μm BLZ945. Four 20× images per well were collected every hour for 24 hours. Using IncuCyte 2020B software, image masks for phase confluence (visually gated out apoptotic cells) as well as caspase 3/7 signal (green) were generated. Graphs display caspase normalized to phase confluence, completed with 3 lines: WT, G795A, G795C (see FIGS. 4A, 4B, 4C, 4D, and 4E).

WT microglia [1] = assay: as above; type: cell-based, human; details: 250 nM, 500 nM, 1 μm, versus DMSO control
Description: as §1, §2, §3, §4

G795A iPSC-microglia [2] = assay: as above; type: cell-based, human; details: 250 nM, 500 nM, 1 μm, versus DMSO control
Description: as §1, §2, §3, §4

[3] = system: wild-type (WT) iPSC-microglia; assay: LIVE/DEAD viability/cytotoxicity assay; type: cell-based, human; details: 500 nM or 1 uM, 24 hours
Protocol: (§5) FIGS. 5A and 5B show G795A iPSC-derived microglia are resistant to CSF1R antagonist-induced cell death. As cells can die from processes other than caspase-mediated apoptosis, it is important to determine whether the G795A mutation provides a more broad-based resistance to any form of cell death induced by CSF1R antagonists. Therefore, G795A and wild-type (WT) iPSC-microglia were treated for 24 hours with either 500 nM (FIG. 5A) or 1 uM (FIG. 5B) of DMSO vehicle control or one of four CSF1R antagonists; PLX3397, PLX5622, Edicotinib, and BLZ945. The percent of live versus dead cells was then quantified using a two-color viability/cytotoxicity approach (Thermo L3224; LIVE/DEAD™ Viability/Cytotoxicity Kit). Very few dead microglia are observed 24 hours after treatment with DMSO. […] Live cells are denoted with a circle.

G795A iPSC-microglia [4] = assay: LIVE/DEAD viability/cytotoxicity assay; type: cell-based, human; details: 500 nM or 1 uM, 24 hours
Protocol: as §5

G795A xMGs = assay: Xenotransplanted human microglia in adult mice, PLX3397 chow, immunohistochemistry; type: in vivo; details: 600 mg/kg in rodent chow ad libitum, 4 weeks
Description: (§6) FIGS. 11A, 11B, 110, 11D, 11E, 11F, 11G, 11H, 11I, and 11J show G795A iPSC-derived microglia are resistant to CSF1R […] treatment and enable robust engraftment of human microglia within the adult mammalian brain. Xenotransplantation-compatible mice received bilateral stereotactic intrahippocampal injections of 500,000 iPSC-derived human microglia (xMGs) at 2-months of age. Mice received xMGs differentiated from either a homozygous CSF1R-resistant G795A human IPSO line or an isogenic unmodified Wad-Type human iPSC. At […], mice were treated with 600 mg/kg of PLX3397 in rodent chow ad libitum for 4 weeks duration. Mice were then sacrificed, and half-brains were examined by fluorescent immunohistochemistry and confocal microscopy.

wild-type human xMGs = assay: as above; type: in vivo; details: 600 mg/kg in rodent chow ad libitum, 4 weeks
Description: as §6

[5] = system: CSF1R-G795A human iPSC-microglia; assay: Quantification of human iPSC-microglial engraftment (Ku80+/Iba1+) in adult hCSF1 mice; type: in vivo; details: after CSF1R-G795A iPSC-microglia transplantation, 600 mg/kg PLX3397 in food
Protocol: In contrast, when CSF1R-G795A iPSC-microglia transplantation is followed with treatment of mice for 10 days with PLX3397 containing mouse chow (600 mg/kg PLX3397 in food), the percent of human microglia increases to almost 25%. After 30 days of PLX3397 treatment (600 mg/kg PLX3397 in food), 90-95% of all microglia in the brain are human as evidenced by co-expression of Ku80 and IBA1. By transplanting CSF1R-G795A iPSC-microglia and varying the concentration and duration of CSF1R antagonist treatment either before, during, or after transplantation, one can control the degree of human iPSC-microglial engraftment.

MUT1 (G795A) microglia = assay: RNA-seq after 24-hour treatment versus DMSO; type: cell-based, human
Description: (§7) FIGS. 2A, 2B, 2C, 2D, 2E, and 2F show selected CSF1R mutations have little effect on transcriptomic signature while simultaneously imparting resistance to PLX5622.

WT microglia [6] = assay: RNA-seq after 24-hour treatment versus DMSO; type: cell-based, human; details: FDR≤0.05, log 2(FC)≥±1
Description: as §7

MUT2 (G795C) microglia = assay: RNA-seq after 24-hour treatment versus DMSO; type: cell-based, human
Description: as §7

Row | SMILES | caspase 3/7 levels (cell death, apoptosis) (G795C iPSC-microglia) | caspase 3/7 levels (cell death, apoptosis) (WT microglia [1]) | caspase 3/7 levels (cell death, apoptosis) (G795A iPSC-microglia [2]) | cell death (live versus dead cells) [3] | cell death (live versus dead cells) (G795A iPSC-microglia [4]) | survival and expansion of transplanted xMGs in the brain (G795A xMGs) | survival of transplanted xMGs in the brain (wild-type human xMGs) | percent of human microglia (Ku80+/Iba1+) of total microglia ([5]; 10 days) [%] | percent of human microglia (Ku80+/Iba1+) of total microglia ([5]; 30 days) | transcriptomic alterations versus DMSO-treated cells (MUT1 (G795A) microglia) | transcriptomic alterations versus DMSO-treated cells (WT microglia [6]) | transcriptomic alterations versus DMSO-treated cells (MUT2 (G795C) microglia)
1 | CNC(=O)c1cc(Oc2ccc3nc(N[C@@H]4CCCC[C@H]4O)sc3c2)ccn1 [BLZ945] | no significant increase in caspase levels | significant levels of increased caspase | no significant increase in caspase levels | substantial cell death | little-to-no cell death |  |  |  |  |  |  | 
2 | CC1(C)CC=C(c2nc(C3CC(C)(C)OC(C)(C)C3)ccc2NC(=O)c2nc(C#N)c[nH]2)CC1 [Edicotinib] | no significant increase in caspase levels | significant levels of increased caspase | no significant increase in caspase levels | substantial cell death | little-to-no cell death |  |  |  |  |  |  | 
3 | FC(F)(F)c1ccc(CNc2ccc(Cc3c[nH]c4ncc(Cl)cc34)cn2)cn1 [PLX3397] | complete resistance to cell death; also recorded: no significant increase in caspase levels | robust dose-dependent induction of apoptosis; also recorded: significant levels of increased caspase | complete resistance to cell death; also recorded: no significant increase in caspase levels | substantial cell death | little-to-no cell death | proliferate and expand | only a handful of wild-type human xMGs survive | ~25 | 90-95% |  |  | 
4 | COc1ncc(F)cc1CNc1ccc(Cc2c[nH]c3ncc(C)cc23)c(F)n1 [PLX5622] | complete resistance to cell death; also recorded: no significant increase in caspase levels | robust dose-dependent induction of apoptosis; also recorded: significant levels of increased caspase | complete resistance to cell death; also recorded: no significant increase in caspase levels | substantial cell death | little-to-no cell death |  |  |  |  | failed to significantly alter gene expression | induced significant transcriptomic alterations | failed to significantly alter gene expression
